According to ChEMBL document CHEMBL4219122, “Synthesis and biological evaluation of histone deacetylase and DNA topoisomerase II-Targeted inhibitors” (Bioorg Med Chem, 2018):
The source made the active and inactive calls. The rule behind the calls is not given here.

Experiments:
SF-295 = experiment: Growth inhibition of human SF295 cells after 48 hrs by sulforhodamine B-based colorimetric assay; format: functional; details: SF-295, 48 h
[1] = Growth inhibition of human HBC5 cells after 48 hrs by sulforhodamine B-based colorimetric assay; format: functional; details: HBC5, 48 h
HT-29 = experiment: Growth inhibition of human HT-29 cells after 48 hrs by sulforhodamine B-based colorimetric assay; format: functional; details: HT-29, 48 h
DMS-114 = experiment: Growth inhibition of human DMS114 cells after 48 hrs by sulforhodamine B-based colorimetric assay; format: functional; details: DMS-114, 48 h
[2] = target: T1, Protein deacetylase HDAC6 (Mus musculus, UniProt Q9Z2V5); experiment: Inhibition of recombinant mouse HDAC6 expressed in HEK293T cells co-expressing mouse HDA2 using Ac-KGLGK(Ac)-MCA as substrate after 30 mins in presence of DTT by fluorescence assay
T1 sequence (Q9Z2V5 whole entry): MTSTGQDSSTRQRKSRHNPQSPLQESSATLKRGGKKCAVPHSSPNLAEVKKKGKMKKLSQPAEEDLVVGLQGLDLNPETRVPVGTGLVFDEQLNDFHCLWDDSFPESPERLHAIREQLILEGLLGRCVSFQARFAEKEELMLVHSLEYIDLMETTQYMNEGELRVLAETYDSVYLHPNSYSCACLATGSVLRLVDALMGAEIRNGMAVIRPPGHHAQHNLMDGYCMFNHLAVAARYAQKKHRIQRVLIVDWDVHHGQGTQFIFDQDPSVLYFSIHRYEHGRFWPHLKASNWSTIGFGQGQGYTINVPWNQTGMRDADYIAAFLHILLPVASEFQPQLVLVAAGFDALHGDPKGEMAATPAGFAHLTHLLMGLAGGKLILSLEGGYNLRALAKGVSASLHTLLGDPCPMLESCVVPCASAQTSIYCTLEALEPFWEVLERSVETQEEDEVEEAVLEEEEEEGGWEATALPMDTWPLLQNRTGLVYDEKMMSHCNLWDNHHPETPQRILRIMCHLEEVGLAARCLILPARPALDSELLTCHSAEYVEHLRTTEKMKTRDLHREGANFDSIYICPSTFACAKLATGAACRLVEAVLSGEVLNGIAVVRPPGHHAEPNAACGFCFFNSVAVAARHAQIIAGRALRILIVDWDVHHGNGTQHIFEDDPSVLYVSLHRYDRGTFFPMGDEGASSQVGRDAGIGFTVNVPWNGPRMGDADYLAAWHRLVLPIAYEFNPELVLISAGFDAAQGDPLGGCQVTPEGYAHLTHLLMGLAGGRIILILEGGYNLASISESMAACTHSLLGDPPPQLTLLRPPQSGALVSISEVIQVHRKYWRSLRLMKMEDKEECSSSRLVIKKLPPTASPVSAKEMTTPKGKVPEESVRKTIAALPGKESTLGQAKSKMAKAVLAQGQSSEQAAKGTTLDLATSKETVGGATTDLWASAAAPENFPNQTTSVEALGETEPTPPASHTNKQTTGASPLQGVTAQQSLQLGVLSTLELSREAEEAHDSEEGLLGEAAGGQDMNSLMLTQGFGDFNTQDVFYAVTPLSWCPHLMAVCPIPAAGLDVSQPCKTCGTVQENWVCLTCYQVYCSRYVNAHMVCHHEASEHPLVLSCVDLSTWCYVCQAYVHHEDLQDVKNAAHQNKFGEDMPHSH

U-251 = experiment: Growth inhibition of human U251 cells after 48 hrs by sulforhodamine B-based colorimetric assay; format: functional; details: U-251, 48 h
MKN-7 = experiment: Growth inhibition of human MKN7 cells after 48 hrs by sulforhodamine B-based colorimetric assay; format: functional; details: MKN-7, 48 h
SF-268 = experiment: Growth inhibition of human SF268 cells after 48 hrs by sulforhodamine B-based colorimetric assay; format: functional; details: SF-268, 48 h
MDA-MB-231 = experiment: Growth inhibition of human MDA-MB-231 cells after 48 hrs by sulforhodamine B-based colorimetric assay; format: functional; details: MDA-MB-231, 48 h
PC-3 = experiment: Growth inhibition of human PC3 cells after 48 hrs by sulforhodamine B-based colorimetric assay; format: functional; details: PC-3, 48 h
HCT-15 = experiment: Growth inhibition of human HCT15 cells after 48 hrs by sulforhodamine B-based colorimetric assay; format: functional; details: HCT-15, 48 h
SNB-75 = experiment: Growth inhibition of human SNB75 cells after 48 hrs by sulforhodamine B-based colorimetric assay; format: functional; details: SNB-75, 48 h
OVCAR-8 = experiment: Growth inhibition of human OVCAR8 cells after 48 hrs by sulforhodamine B-based colorimetric assay; format: functional; details: OVCAR-8, 48 h
[3] = target: T2, DNA topoisomerase 2-alpha (Homo sapiens, UniProt P11388); experiment: Inhibition of human topoisomerase-2 alpha-mediated kinetoplast DNA decatenation at 100 to 400 uM after 30 mins by ethidium bromide staining based agarose gel electrophoresis
T2 sequence (P11388 whole entry): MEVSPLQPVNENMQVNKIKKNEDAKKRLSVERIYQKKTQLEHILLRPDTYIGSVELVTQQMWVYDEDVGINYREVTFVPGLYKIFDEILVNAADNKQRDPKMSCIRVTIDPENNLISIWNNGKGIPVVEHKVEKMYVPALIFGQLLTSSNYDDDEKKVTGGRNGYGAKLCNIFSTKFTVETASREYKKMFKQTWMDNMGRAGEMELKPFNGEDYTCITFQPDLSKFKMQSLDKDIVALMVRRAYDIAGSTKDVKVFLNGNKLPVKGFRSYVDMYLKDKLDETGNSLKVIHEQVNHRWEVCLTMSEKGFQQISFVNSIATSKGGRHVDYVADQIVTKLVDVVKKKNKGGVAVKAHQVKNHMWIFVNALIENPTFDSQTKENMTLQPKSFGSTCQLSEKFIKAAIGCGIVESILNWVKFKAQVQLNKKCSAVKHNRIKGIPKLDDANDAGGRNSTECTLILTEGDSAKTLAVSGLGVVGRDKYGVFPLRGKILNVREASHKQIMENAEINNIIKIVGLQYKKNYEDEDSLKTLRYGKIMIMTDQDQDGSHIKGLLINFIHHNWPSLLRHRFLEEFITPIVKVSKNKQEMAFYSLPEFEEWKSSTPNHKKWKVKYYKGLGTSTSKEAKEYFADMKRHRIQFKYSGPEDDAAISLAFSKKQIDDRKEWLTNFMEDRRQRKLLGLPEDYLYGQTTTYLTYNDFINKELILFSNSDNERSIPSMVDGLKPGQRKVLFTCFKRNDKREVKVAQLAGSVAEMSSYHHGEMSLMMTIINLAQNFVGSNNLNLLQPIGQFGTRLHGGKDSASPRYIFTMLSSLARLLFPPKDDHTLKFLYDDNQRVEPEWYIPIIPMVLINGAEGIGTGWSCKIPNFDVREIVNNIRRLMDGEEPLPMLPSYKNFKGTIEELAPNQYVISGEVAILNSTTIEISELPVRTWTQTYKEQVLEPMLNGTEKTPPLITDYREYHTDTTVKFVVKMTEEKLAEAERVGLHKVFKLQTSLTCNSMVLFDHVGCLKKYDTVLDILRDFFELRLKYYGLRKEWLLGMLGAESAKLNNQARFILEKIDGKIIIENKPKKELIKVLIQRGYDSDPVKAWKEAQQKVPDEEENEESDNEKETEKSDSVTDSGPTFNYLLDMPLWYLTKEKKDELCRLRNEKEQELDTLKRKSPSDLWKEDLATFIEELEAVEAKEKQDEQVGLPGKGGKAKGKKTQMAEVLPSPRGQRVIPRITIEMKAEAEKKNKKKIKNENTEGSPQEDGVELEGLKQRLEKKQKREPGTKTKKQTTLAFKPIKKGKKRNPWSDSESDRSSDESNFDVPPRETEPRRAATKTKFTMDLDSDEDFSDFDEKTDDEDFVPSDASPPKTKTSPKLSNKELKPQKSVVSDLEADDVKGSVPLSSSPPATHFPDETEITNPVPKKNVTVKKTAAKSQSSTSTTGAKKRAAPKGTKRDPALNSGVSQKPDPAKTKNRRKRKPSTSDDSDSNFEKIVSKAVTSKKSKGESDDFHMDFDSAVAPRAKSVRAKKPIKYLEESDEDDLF

SF-539 = experiment: Growth inhibition of human SF539 cells after 48 hrs by sulforhodamine B-based colorimetric assay; format: functional; details: SF-539, 48 h
[4] = Growth inhibition of human BSY1 cells after 48 hrs by sulforhodamine B-based colorimetric assay; format: functional; details: BSY-1, 48 h
RXF 631 = experiment: Growth inhibition of human RXF631L cells after 48 hrs by sulforhodamine B-based colorimetric assay; format: functional; details: RXF 631, 48 h
A549 = experiment: Growth inhibition of human A549 cells after 48 hrs by sulforhodamine B-based colorimetric assay; format: functional; details: A549, 48 h
MKN-1 = experiment: Growth inhibition of human MKN1 cells after 48 hrs by sulforhodamine B-based colorimetric assay; format: functional; details: MKN-1, 48 h
SK-OV-3 = experiment: Growth inhibition of human SKOV3 cells after 48 hrs by sulforhodamine B-based colorimetric assay; format: functional; details: SK-OV-3, 48 h
OVCAR-5 = experiment: Growth inhibition of human OVCAR5 cells after 48 hrs by sulforhodamine B-based colorimetric assay; format: functional; details: OVCAR-5, 48 h
LOX IMVI = experiment: Growth inhibition of human LOXIMVI cells after 48 hrs by sulforhodamine B-based colorimetric assay; format: functional
[5] = target: T2, DNA topoisomerase 2-alpha; experiment: Inhibition of human topoisomerase-2 alpha-mediated kinetoplast DNA decatenation at 200 uM after 30 mins by ethidium bromide staining based agarose gel electrophoresis
DU-145 = experiment: Growth inhibition of human DU145 cells after 48 hrs by sulforhodamine B-based colorimetric assay; format: functional, cell-based; details: DU-145, 48 h
HCT-116 = experiment: Growth inhibition of human HCT116 cells after 48 hrs by sulforhodamine B-based colorimetric assay; format: functional, cell-based; details: HCT-116, 48 h
MKN-74 = experiment: Growth inhibition of human MKN74 cells after 48 hrs by sulforhodamine B-based colorimetric assay; format: functional; details: MKN-74, 48 h
KM12 = experiment: Growth inhibition of human KM12 cells after 48 hrs by sulforhodamine B-based colorimetric assay; format: functional; details: KM12, 48 h
NCI-H226 = experiment: Growth inhibition of human NCI-H226 cells after 48 hrs by sulforhodamine B-based colorimetric assay; format: functional; details: NCI-H226, 48 h

With `Cc1cn([C@@H]2C[C@H](C3(c4ccc(NC(=O)CCCCCCC(=O)NO)cc4)SCCCS3)[C@@H](CO[Si](C)(C)C(C)(C)C)O2)c(=O)[nH]c1=O` as the compound, how does the GI50 (SF-295) read?
The GI50 was 6.92 µM.

And the GI50 [1]?
Its GI50 is 6.31 µM.

And the GI50 (HT-29)?
The GI50 was 7.08 µM.

And the GI50 (DMS-114)?
The GI50 was 3.55 µM.

What about the IC50 [2] of the same compound?
Its IC50 is 0.044 µM.

What about the GI50 (U-251) of the same compound?
Its GI50 is 5.13 µM.

And the GI50 (MKN-7)?
The GI50 was 3.47 µM.

And the GI50 (SF-268)?
The GI50 was 6.03 µM.

What about the GI50 (MDA-MB-231) of the same compound?
The GI50 was 3.09 µM.

And the GI50 (PC-3)?
The GI50 was 4.57 µM.

And the GI50 (HCT-15)?
The GI50 was 15.5 µM.

What about the GI50 (SNB-75) of the same compound?
Its GI50 is 5.5 µM.

What about the GI50 (OVCAR-8) of the same compound?
Its GI50 is 4.27 µM.

What about the inhibition [3] of the same compound?
Its inhibition is “Active”.

What about the GI50 (SF-539) of the same compound?
Its GI50 is 4.57 µM.

And the GI50 [4]?
The GI50 was 2.63 µM.

What about the GI50 (RXF 631) of the same compound?
Its GI50 is 11.2 µM.

What about the GI50 (A549) of the same compound?
The GI50 was 8.51 µM.

And the GI50 (MKN-1)?
Its GI50 is 4.47 µM.

What about the GI50 (SK-OV-3) of the same compound?
The GI50 was 12.9 µM.

What about the GI50 (OVCAR-5) of the same compound?
Its GI50 is 6.61 µM.

What about the GI50 (LOX IMVI) of the same compound?
Its GI50 is 2.14 µM.

And the inhibition [5]?
The inhibition was “Active”.

What about the GI50 (DU-145; read-out: GI50) of the same compound?
The GI50 was 3.98 µM.

And the GI50 (DU-145; read-out: pGI50 (converted))?
Its GI50 is 3.98 µM.

What about the GI50 (HCT-116; read-out: GI50) of the same compound?
The GI50 was 4.17 µM.

And the GI50 (HCT-116; read-out: pGI50 (converted))?
Its GI50 is 4.17 µM.

What about the GI50 (MKN-74) of the same compound?
The GI50 was 5.75 µM.

What about the GI50 (KM12) of the same compound?
Its GI50 is 6.76 µM.

And the GI50 (NCI-H226)?
Its GI50 is 10.2 µM.

For `Cc1cn([C@H]2C[C@H](C3(c4ccc(NC(=O)CCCCCCC(=O)NO)cc4)SCCCS3)[C@@H](CO[Si](C)(C)C(C)(C)C)O2)c(=O)[nH]c1=O`, which GI50 (SF-295) is on record?
The GI50 was 4.9 µM.

What about the GI50 [1] of the same compound?
Its GI50 is 6.46 µM.

And the GI50 (HT-29)?
Its GI50 is 3.63 µM.

What about the GI50 (DMS-114) of the same compound?
The GI50 was 3.09 µM.

What about the IC50 [2] of the same compound?
Its IC50 is 0.051 µM.

What about the GI50 (U-251) of the same compound?
Its GI50 is 3.98 µM.

What about the GI50 (MKN-7) of the same compound?
The GI50 was 2.95 µM.

And the GI50 (SF-268)?
The GI50 was 4.37 µM.

And the GI50 (MDA-MB-231)?
The GI50 was 2.51 µM.

What about the GI50 (PC-3) of the same compound?
The GI50 was 4.37 µM.

And the GI50 (HCT-15)?
Its GI50 is 3.55 µM.

And the GI50 (SNB-75)?
The GI50 was 5.37 µM.

What about the GI50 (OVCAR-8) of the same compound?
Its GI50 is 3.55 µM.

What about the inhibition [3] of the same compound?
Its inhibition is “Active”.

And the GI50 (SF-539)?
The GI50 was 3.39 µM.

What about the GI50 [4] of the same compound?
Its GI50 is 2.63 µM.

And the GI50 (RXF 631)?
The GI50 was 3.63 µM.

And the GI50 (A549)?
The GI50 was 5.01 µM.

And the GI50 (MKN-1)?
Its GI50 is 2.95 µM.

And the GI50 (SK-OV-3)?
The GI50 was 4.07 µM.

And the GI50 (OVCAR-5)?
Its GI50 is 4.9 µM.

And the GI50 (LOX IMVI)?
The GI50 was 1.78 µM.

And the inhibition [5]?
Its inhibition is “Active”.

What about the GI50 (DU-145; read-out: GI50) of the same compound?
The GI50 was 3.98 µM.

What about the GI50 (DU-145; read-out: pGI50 (converted)) of the same compound?
The GI50 was 3.98 µM.

What about the GI50 (HCT-116; read-out: GI50) of the same compound?
Its GI50 is 3.39 µM.

What about the GI50 (HCT-116; read-out: pGI50 (converted)) of the same compound?
Its GI50 is 3.39 µM.

What about the GI50 (MKN-74) of the same compound?
The GI50 was 4.47 µM.

And the GI50 (KM12)?
Its GI50 is 4.57 µM.

What about the GI50 (NCI-H226) of the same compound?
Its GI50 is 3.89 µM.
